Our source for the IC50 values is patent US10626112B2, “Heterocyclic sulfonamide derivative and medicine comprising same” (EA PHARMA CO., LTD., priority 2014, dated 2020).

By IC50 is commonly meant the concentration that gives 50% inhibition.

For the experiment, the target named is human TRPA1 (Homo sapiens (Human), UniProt O75762). Put plainly: Measurement of TRPA1 antagonist activity (2): as (1), different lot of human TRPA1 expression plasmid. The class given is cell-based. The note with it: 293T cells transfected with human TRPA1, allylisothiocyanate 20 μM stimulation, calcium fluorescence, read-out: hTRPA1 IC50. The protocol: Human embryonic kidney-derived 293T cells were cultured in Dulbecco's Modified Eagle Medium containing 10% fetal bovine serum, 10 unit penicillin, and 10 μg streptomycin, plated on a petri dish having a diameter of 10 cm at 3×10^6 cells, and cultured for 24 hr in a CO2 incubator. A reduced serum medium (manufactured by Invitrogen, trade name: OPTI-MEM, 600 μL), a gene transfer reagent (manufactured by Mirus Bio, trade name: Mirus TransIT-293, 18 μL), and human TRPA1 expression plasmid (6 μg) were mixed, the total amount of the mixture was added to the cells on the petri dish to allow for gene transfer. The cells were recovered about for 8 hr later, plated on a poly-D-lysine coated 384 well black/clear bottom plate at 12,000 cells/well, and cultured overnight.
Sequence of human TRPA1 (O75762 whole entry): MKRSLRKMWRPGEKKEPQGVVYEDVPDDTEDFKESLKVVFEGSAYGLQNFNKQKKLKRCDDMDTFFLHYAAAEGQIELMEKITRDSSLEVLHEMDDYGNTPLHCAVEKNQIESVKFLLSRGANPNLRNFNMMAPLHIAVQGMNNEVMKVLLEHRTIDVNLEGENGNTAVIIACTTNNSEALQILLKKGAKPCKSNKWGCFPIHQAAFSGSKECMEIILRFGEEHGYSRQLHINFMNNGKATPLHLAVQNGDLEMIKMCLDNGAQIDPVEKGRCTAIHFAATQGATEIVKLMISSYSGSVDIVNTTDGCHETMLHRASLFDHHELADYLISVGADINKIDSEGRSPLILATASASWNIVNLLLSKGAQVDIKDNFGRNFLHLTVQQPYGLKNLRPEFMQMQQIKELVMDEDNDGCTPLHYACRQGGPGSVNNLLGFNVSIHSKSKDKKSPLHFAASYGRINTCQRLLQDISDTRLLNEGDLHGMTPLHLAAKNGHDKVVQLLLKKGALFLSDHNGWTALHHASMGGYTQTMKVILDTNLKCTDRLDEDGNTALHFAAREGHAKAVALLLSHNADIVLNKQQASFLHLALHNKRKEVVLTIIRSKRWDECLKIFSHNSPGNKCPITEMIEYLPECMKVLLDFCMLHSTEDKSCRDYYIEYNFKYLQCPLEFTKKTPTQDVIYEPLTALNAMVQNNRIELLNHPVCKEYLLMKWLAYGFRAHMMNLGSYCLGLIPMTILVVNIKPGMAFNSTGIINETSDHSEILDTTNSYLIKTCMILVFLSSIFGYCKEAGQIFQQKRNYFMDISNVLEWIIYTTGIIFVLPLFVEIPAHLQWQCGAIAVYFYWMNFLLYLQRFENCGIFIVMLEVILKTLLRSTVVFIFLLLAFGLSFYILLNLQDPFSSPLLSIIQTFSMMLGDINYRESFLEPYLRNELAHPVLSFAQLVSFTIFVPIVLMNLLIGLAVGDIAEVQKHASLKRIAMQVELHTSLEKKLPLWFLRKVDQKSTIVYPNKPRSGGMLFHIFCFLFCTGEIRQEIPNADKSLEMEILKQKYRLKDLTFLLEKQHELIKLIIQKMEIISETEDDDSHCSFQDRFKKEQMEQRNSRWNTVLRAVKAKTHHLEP
Measurement of Intracellular Calcium Increase
The 384 well plate was recovered, and the medium was removed. A calcium-bonded fluorescent indicator (manufactured by Molecular Device, trade name: Calcium4 Assay Kit, 38 μL) dissolved in assay buffer (1×HBSS, 20 mM HEPES, pH 7.2) was added, and the cells were stained in a CO2 incubator for 1 hr. The cells were taken out at room temperature, stood for not less than 15 min, a test substance (10 μL) was added by a platereader FDSS7000 (Hamamatsu Photonics K.K.) equipped with a 384ch dispenser. After 10 min, allylisothiocyanate (12 μL) was further added at a final concentration of 20 μM, and changes in the relative fluorescence intensity after addition of allylisothiocyanate were measured for 5 min.
Test Substance Preparation
The test substance was dissolved in dimethyl sulfoxide and serially diluted with an assay buffer containing 0.1% bovine serum albumin (1×HBSS, 20 mM HEPES, pH 7.2) to a 4.8-fold concentration of the evaluation concentration. Allylisothiocyanate, which is a known TRPA1 activator, was dissolved in dimethyl sulfoxide to 100 mM, and further diluted 5-fold (100 μM) of the final concentration, like the test substance.
Calculation of Antagonist Activity
Under the test substance-free conditions, the maximum variation range of the fluorescence intensity before and after allylisothiocyanate stimulation was defined to be 100% activity rate, and the variation range before and after buffer stimulation was defined as 0% activity rate. The activity rate on addition of the test substance was determined, and the numerical value obtained by subtracting the activity rate from 100 was defined to be an inhibitory rate. IC50, which is the concentration of the test substance necessary for reaching the 50% inhibitory rate, was calculated from the sigmoid approximate curve by a spreadsheet software Excel-Fit.
Measurement of TRPA1 Antagonist Activity (2)
By a method similar to that in Experimental Example 1-1 except that the lot of human […] expression plasmid is different, the TRPA1 antagonist activity of the test substance was measured.
Take `C=CCN([C@@H](C)C(=O)NCc1cc(-c2ccc(C(F)(F)F)cn2)ccn1)S(=O)(=O)c1cc2cc(F)ccc2o1` [Example 417, (2S)-2-[allyl-(5-fluorobenzofuran-2-yl)sulfonyl-amino]-N-[[4-[5-(trifluoromethyl)-2-pyridyl]-2-pyridyl]methyl]propanamide]: the IC50 was determined as 14 nM.
Next, `O=C(CN(CC1CCNCC1)S(=O)(=O)c1cc2cc(F)ccc2o1)NCc1cc(-c2ccc(C(F)(F)F)cn2)ccn1` [Example 423, 2-[(5-fluorobenzofuran-2-yl)sulfonyl-(4-piperidylmethyl)amino]-N-[[4-[5-(trifluoromethyl)-2-pyridyl]-2-pyridyl]methyl]acetamide]: 33 nM; `O=C(CNS(=O)(=O)c1cc2cc(F)ccc2o1)NCc1cc(-c2ccc(C(F)(F)F)cn2)ccn1` [Example 343, 2-[(5-fluorobenzofuran-2-yl)sulfonylamino]-N-[[4-[5-(trifluoromethyl)-2-pyridyl]-2-pyridyl]methyl]acetamide]: 280 nM; `O=C(NCc1cc(-c2ncc(C(F)(F)F)cn2)ccn1)[C@@H]1CCN1S(=O)(=O)c1cc2cc(F)ccc2o1` [Example 394, (2S)-1-(5-fluorobenzofuran-2-yl)sulfonyl-N-[[4-[5-(trifluoromethyl)pyrimidin-2-yl]-2-pyridyl]methyl]azetidine-2-carboxamide]: 11 nM.
Next, `O=C(NCc1cc(-c2ccc(C(F)(F)F)cn2)ccn1)[C@@H]1CCN1S(=O)(=O)c1cc2ccccc2o1` [Example 385, (2S)-1-(benzofuran-2-ylsulfonyl)-N-[[4-[5-(trifluoromethyl)-2-pyridyl]-2-pyridyl]methyl]azetidine-2-carboxamide]: 13 nM; `O=C(NCc1ccc(O)c(-c2ccc(C(F)(F)F)nn2)c1)[C@@H]1CCCN1S(=O)(=O)c1cc2ccccc2o1` [Example 380, (2S)-1-(benzofuran-2-ylsulfonyl)-N-[[4-hydroxy-3-[6-(trifluoromethyl)pyridazin-3-yl]phenyl]methyl]pyrrolidine-2-carboxamide]: 3.1 nM.
For the molecule `C[C@H](NS(=O)(=O)c1cc2cc(F)ccc2o1)C(=O)NCc1cc(-c2ccc(C(F)(F)F)nc2)nc(N(C)C)n1` [Example 372, (2S)-N-[[2-(dimethylamino)-6-[6-(trifluoromethyl)-3-pyridyl]pyrimidin-4-yl]methyl]-2-[(5-fluorobenzofuran-2-yl)sulfonylamino]propanamide], the IC50 was determined as 27 nM.
In the case of `CN(C(C)(C)C(=O)NCc1cc(-c2ccc(C(F)(F)F)cn2)ccn1)S(=O)(=O)c1cc2cc(F)ccc2o1` [Example 340, 2-[(5-fluorobenzofuran-2-yl)sulfonyl-methyl-amino]-2-methyl-N-[[4-[5-(trifluoromethyl)-2-pyridyl]-2-pyridyl]methyl]propanamide], the IC50 is 380 nM.
As for `CN(C)c1nc(CNC(=O)[C@@H]2CCN2S(=O)(=O)c2cc3cc(F)ccc3o2)cc(-c2ccc(C(F)(F)F)nc2)n1` [Example 384, (2S)-N-[[2-(dimethylamino)-6-[6-(trifluoromethyl)-3-pyridyl]pyrimidin-4-yl]methyl]-1-(5-fluorobenzofuran-2-yl)sulfonyl-azetidine-2-carboxamide], the IC50 was 13 nM.
For the molecule `O=C(NCc1cc(-c2ccc(C(F)(F)F)cn2)cnn1)[C@@H]1CCCN1S(=O)(=O)c1cc2cc(F)ccc2o1` [Example 396, (2S)-1-(5-fluorobenzofuran-2-yl)sulfonyl-N-[[5-[5-(trifluoromethyl)-2-pyridyl]pyridazin-3-yl]methyl]pyrrolidine-2-carboxamide], the half-inhibitory concentration (IC50) turned out to be 7.6 nM.
In the case of `O=C(NCc1cc(-c2ccc(C(F)F)cc2)ccn1)[C@@H]1CCCN1S(=O)(=O)c1cc2ccccc2o1` [Example 333, (2S)-1-(benzofuran-2-ylsulfonyl)-N-[[4-[4-(difluoromethyl)phenyl]-2-pyridyl]methyl]pyrrolidine-2-carboxamide] it was 21 nM; in that of `C[C@H](NS(=O)(=O)c1cc2cnccc2o1)C(=O)NCc1cc(-c2ccc(C(F)(F)F)cc2O)ncn1` [Example 414, (2S)-2-(furo[3,2-c]pyridin-2-ylsulfonylamino)-N-[[6-[2-hydroxy-4-(trifluoromethyl)phenyl]pyrimidin-4-yl]methyl]propanamide], 34 nM; in that of `CN(C)c1nc(CNC(=O)[C@@H]2CCCN2S(=O)(=O)c2cc3cnccc3o2)cc(-c2ccc(C(F)(F)F)cc2)n1` [Example 375, (2S)-N-[[2-(dimethylamino)-6-[4-(trifluoromethyl)phenyl]-pyrimidin-4-yl]methyl]-1-furo[3,2-c]pyridin-2-ylsulfonyl-pyrrolidine-2-carboxamide], 13 nM.
Turning to `O=C(NCc1cc(-c2cnc(C(F)(F)F)nc2)ncn1)[C@@H]1CCN1S(=O)(=O)c1cc2ccccc2o1` [Example 409, (2S)-1-(benzofuran-2-ylsulfonyl)-N-[[6-[2-(trifluoromethyl)pyrimidin-5-yl]pyrimidin-4-yl]methyl]azetidine-2-carboxamide], the IC50 came out at 29 nM.
`O=C(NCc1cc(-c2ccc(C(F)(F)F)cc2)nc(N2CCC2)n1)[C@@H]1CCCN1S(=O)(=O)c1cc2ccccc2o1` [Example 328, (2S)-N-[[2-(azetidin-1-yl)-6-[4-(trifluoromethyl)phenyl]pyrimidin-4-yl]methyl]-1-(benzofuran-2-ylsulfonyl)pyrrolidine-2-carboxamide]: the IC50 stood at 16 nM.
Regarding `O=C(NCc1cc(-c2cnc(C(F)(F)F)cn2)ccn1)[C@@H]1CCN1S(=O)(=O)c1cc2cc(F)ccc2o1` [Example 393, (2S)-1-(5-fluorobenzofuran-2-yl)sulfonyl-N-[[4-[5-(trifluoromethyl)pyrazin-2-yl]-2-pyridyl]methyl]azetidine-2-carboxamide], the IC50 came out at 9.1 nM.
`COCCN(CC(=O)NCc1cc(-c2ccc(C(F)(F)F)cc2)ncn1)S(=O)(=O)c1cc2cc(F)ccc2o1` [Example 357, 2-[(5-fluorobenzofuran-2-yl)sulfonyl-(2-methoxyethyl)-amino]-N-[[6-[4-(trifluoromethyl)-phenyl]pyrimidin-4-yl]methyl]acetamide]: the IC50 amounted to 44 nM.
As for `O=C(NCc1ccc(O)c(-c2cnc(C(F)(F)F)cn2)c1)[C@@H]1CCN1S(=O)(=O)c1cc2cc(F)ccc2o1` [Example 390, (2S)-1-(5-fluorobenzofuran-2-yl)sulfonyl-N-[[4-hydroxy-3-[5-(trifluoromethyl)pyrazin-2-yl]phenyl]methyl]azetidine-2-carboxamide], the IC50 was determined as 9.3 nM.
As to `O=C(NCc1cc(-c2cnc(C(F)(F)F)cn2)ccn1)[C@@H]1CCCN1S(=O)(=O)c1cc2cc(F)ccc2o1` [Example 405, (2S)-1-(5-fluorobenzofuran-2-yl)sulfonyl-N-[[4-[5-(trifluoromethyl)pyrazin-2-yl]-2-pyridyl]methyl]pyrrolidine-2-carboxamide], the IC50 was 3.5 nM.
In the case of `CC(C)N(CC(=O)NCc1cc(-c2ccc(C(F)(F)F)nc2)ncn1)S(=O)(=O)c1cc2cc(F)ccc2o1` [Example 359, 2-[(5-fluorobenzofuran-2-yl)sulfonyl-isopropyl-amino]-N-[[6-[6-(trifluoromethyl)-3-pyridyl]pyrimidin-4-yl]methyl]acetamide], the half-inhibitory concentration (IC50) is 7.9 nM.
In the case of `O=C(NCc1cc(-c2ccc(C(F)(F)F)cn2)ccn1)[C@@H]1CCCN1S(=O)(=O)c1cc2ccncc2o1` [Example 346, (2S)-1-furo[2,3-c]pyridin-2-ylsulfonyl-N-[[4-[5-(trifluoromethyl)-2-pyridyl]-2-pyridyl]methyl]pyrrolidine-2-carboxamide] it was 700 nM; in that of `CCN(CC(=O)NCc1cc(-c2ccc(C(F)(F)F)cc2)ncn1)S(=O)(=O)c1cc2cc(F)ccc2o1` [Example 419, 2-[ethyl-(5-fluorobenzofuran-2-yl)sulfonyl-amino]-N-[[6-[4-(trifluoromethyl)phenyl]pyrimidin-4-yl]methyl]acetamide], 4.1 nM; in that of `C[C@H](NS(=O)(=O)c1cc2cnccc2o1)C(=O)NCc1ccnc(-c2ccc(C(F)(F)F)cc2)c1` [Example 366, (2S)-2-(furo[3,2-c]pyridin-2-ylsulfonylamino)-N-[[2-[4-(trifluoromethyl)phenyl]-4-pyridyl]methyl]propanamide], 190 nM.
